Article PMC12488667, “Orodispersible films containing chestnut shell phenolics for buccal delivery: a preclinical approach for oral mucositis prevention” (Frontiers in Medical Technology, 2025)
Where two headings read alike, the source gives them in different places. Marks after values point to notes of the source that are not given here. Blank lines part the entries; values can stand above or below the molecule they belong to.

Experiments:
[1] = Ex vivo permeation, Franz cells; assay type: in vitro ADME, porcine
Description: Porcine buccal mucosa was used to evaluate the buccal permeation of the phenolic compounds in the extract and the CS-loaded OFs (n = 9). The porcine buccal mucosa was purchased in a local butcher shop, not requiring ethical approval. A Franz cell assembly (9 mm clear jacketed Franz cell with a flat ground joint, 5 ml receptor volume, and permeation area of 0.785 cm^2; PermeGear, Inc., USA) was used. This experiment followed the methodology described by Rodrigues et al. ([32]). In the Franz apparatus, the porcine buccal mucosa was positioned with the cheek side facing the donor chamber, which contained 500 µl (1,000 μg/ml) of the CS extract or the CS-loaded OFs (two square films (2 × 2 cm) with […] of thickness were dissolved in 4 ml of artificial saliva; donor concentration was normalized to ensure equivalence between the extract solution and the film formulation). The receptor chamber was filled with 5 ml PBS, maintained at 37°C, and stirred continuously at 150 rpm. The volume was maintained through the experiments.
(§1) The identification and quantification of the phenolic compounds present in the extract and the OFs, as well as the compounds that permeated from the OFs through in vitro and ex vivo assays, were conducted using an LC-ESI-LTQ-Orbitrap-HRMS equipment with an Accela chromatograph (Thermo Scientific, Hemel Hempstead, UK), a photodiode array detector, a quaternary pump, and a temperature-controlled autosampler coupled to a high-resolution LTQ Orbitrap Velos mass spectrometer (Thermo Scientific, Hemel Hempstead, UK) with an ESI source in negative mode ([33], [34]). The system was controlled using the Xcalibur v3.0 software (ThermoFisher Scientific, Hemel Hempstead, UK). Elution was performed on an Acquity™ UPLC® BEH C18 Column (2.1 × 100 mm, i.d., 1.7 µm particle size, Waters Corporation, Wexford, Ireland) maintained at 30°C.
(§2) Gradient elution was performed with water (A) and acetonitrile (B), both with 0.1% formic acid, with a flow rate and injection volume of 450 µl/min and 5 µl, respectively. The solvent gradient (v/v) of B [t (min), %B] was set as follows: (0, 0), (2, 0), (4, 30), (8, 100), (10, 100), (11, 0), and (14, 0). The samples were analyzed in the full scan mode at a resolving power of 30,000 and m/z 600. Data-dependent MS/MS events were acquired at a resolution of 15,000. Most intense ions were detected via the FTMS mode-triggered data-dependent acquisition mode. Ions that were not sufficiently intense for a data-dependent scan were explored in MSn mode. Precursors were fragmented by collision-induced dissociation using a C-trap with a normalized collision energy (35 V) and an activation time of 10 ms. […] Compounds whose theoretical [M–H]^− values exceeded the MS¹ acquisition range (m/z 100–600) were annotated based on characteristic MSⁿ fragment ions detected within the scan window.
Quantitative analysis was performed by using a validated chromatographic method ([38]).

TR146 cells = experiment: In vitro permeation, buccal model; assay type: in vitro ADME, human
Description: The in vitro permeability of the bioactive compounds present in OFs (n = 9) was determined using a co-culture model composed of TR146 ([31]). The extract and the CS-loaded OFs were added to the apical side of the model as a stock solution. […] The Transepithelial Electrical Resistance (TEER) of the model was evaluated before, during, and at the end of the permeability assay using an EVOM Epithelial Volthometer equipped with a chopstick electrode (World Precision Instruments, Sarasota, FL, USA).
as §1, §2

- Quantification of permeated compounds ([1]; CS extract): 4.18 ± 0.26^a mg/ml
- Quantification of permeated compounds ([1]; CS-loaded OFs): 1.18 ± 0.09^a mg/g film
- Permeation (%) ([1]; from CS extract, 15 min): 37.21 ± 0.01^a %
- Permeation (%) ([1]; from CS extract, 30 min): 27.24 ± 0.23^a %
SMILES: N[C@@H](Cc1c[nH]c2ccccc12)C(=O)O [L-Tryptophan]

- Permeation (%) (TR146 cells): 22.32 ± 0.12^a %
SMILES: COc1cc(C[C@@H](CO)[C@H](CO)Cc2ccc(O)c(OC)c2)ccc1O [Secoisolariciresinol]

- Quantification of permeated compounds ([1]; CS extract): 1.93± 0.06^a mg/ml
- Quantification of permeated compounds ([1]; CS-loaded OFs): 0.87 ± 0.06^a mg/g film
- Permeation (%) ([1]; from CS extract, 15 min): 18.69 ± 0.04^a %
- Permeation (%) ([1]; from CS extract, 30 min): 17.60 ± 0.30^a %
SMILES: O=C(CCc1ccc(O)cc1)c1c(O)cc(O)cc1O[C@@H]1O[C@H](CO)[C@@H](O)[C@H](O)[C@H]1O [Phlorizin]

- Quantification of permeated compounds (TR146 cells; CS extract): 0.37 ± 0.01^a mg/ml
- Quantification of permeated compounds (TR146 cells; CS-loaded OFs): 0.37 ± 0.03^a mg/g film
- Permeation (%) (TR146 cells; from CS extract, 15 min): 37.24 ± 0.04^a %
SMILES: COC(=O)c1cc(O)c(O)c(O)c1 [Methyl gallate]

Continued, molecule first:

SMILES: O=c1[nH]c(=O)c2[nH]cnc2[nH]1 [Xanthine]
- Permeation (%) ([1]; pig, 15 min, 1000 μg/ml): 6.94 ± 0.02^a %
- Permeation (%) ([1]; pig, 30 min, 1000 μg/ml): 6.48 ± 0.02^a %

SMILES: COc1cc(-c2oc3cc(O)cc(O)c3c(=O)c2O)ccc1O [Isorhamnetin]
- Quantification of permeated compounds (TR146 cells; CS extract): 0.38 ± 0.04^a mg/ml
- Quantification of permeated compounds (TR146 cells; CS-loaded OFs): 0.38 ± 0.01^a mg/g film
- Permeation (%) (TR146 cells; from CS extract, 15 min): 99.26 ± 2.34^a %
- Permeation (%) (TR146 cells; from CS extract, 30 min): 99.73 ± 1.83^a %
- Permeation (%) (TR146 cells; from CS extract, 45 min): 98.36 ± 3.74^a %
- Permeation (%) (TR146 cells; from CS extract, 60 min): 99.10 ± 2.96^a %
- Permeation (%) (TR146 cells; from CS extract, 90 min): 99.00 ± 4.70^a %
- Permeation (%) (TR146 cells; from CS extract, 120 min): 98.36 ± 1.07^a %
- Permeation (%) (TR146 cells; from CS extract, 180 min): 99.08 ± 2.69^a %
- Permeation (%) (TR146 cells; from CS extract, 240 min): 98.36 ± 1.91^a %
- Permeation (%) (TR146 cells; from CS extract, 240 min, listed as isorhamnetin): 98.36%
- Permeation (%) (TR146 cells; from CS-loaded OFs, 15 min): 105.62 ± 3.71^a %
- Permeation (%) (TR146 cells; from CS-loaded OFs, 30 min): 105.51 ± 3.25^a %
- Permeation (%) (TR146 cells; from CS-loaded OFs, 45 min): 105.05 ± 2.24^a %
- Permeation (%) (TR146 cells; from CS-loaded OFs, 60 min): 101.34 ± 2.95^a %
- Permeation (%) (TR146 cells; from CS-loaded OFs, 90 min): 98.29 ± 2.14^a %
- Permeation (%) (TR146 cells; from CS-loaded OFs, 120 min): 99.38 ± 1.47^a %
- Permeation (%) (TR146 cells; from CS-loaded OFs, 180 min): 98.29 ± 1.94^a %
- Permeation (%) (TR146 cells; from CS-loaded OFs, 240 min): 100.20 ± 3.56^a %
- Permeation (%) (TR146 cells; from CS-loaded OFs, 240 min, listed as isorhamnetin): 100.20%

SMILES: O=C(O)[C@]1(O)C[C@@H](O)[C@@H](O)[C@H](O)C1 [Quinic acid]
- Quantification of permeated compounds ([1]; CS extract): 1.02 ± 0.02^b mg/ml
- Quantification of permeated compounds ([1]; CS-loaded OFs): 0.39 ± 0.01^a mg/g film
- Permeation (%) ([1]; from CS extract, 15 min): 29.36 ± 1.68^a %
- Permeation (%) ([1]; from CS extract, 30 min): 28.33 ± 1.16^a %
- Permeation (%) ([1]; from CS-loaded OFs, 15 min): 70.71 ± 1.52^b %
- Permeation (%) ([1]; from CS-loaded OFs, 30 min): 74.31 ± 1.78^b %

SMILES: O=C(O)CCCCC(=O)O [Adipic acid]
- Quantification of permeated compounds ([1]; CS extract): 93.48 ± 2.39^b mg/ml
- Quantification of permeated compounds ([1]; CS-loaded OFs): 11.84 ± 2.11^a mg/g film
- Permeation (%) ([1]; from CS extract, 15 min): 11.41 ± 0.03^a %
- Permeation (%) ([1]; from CS extract, 30 min): 9.47 ± 0.07^a %
- Permeation (%) ([1]; from CS-loaded OFs, 15 min): 98.93 ± 2.05^b %
- Permeation (%) ([1]; from CS-loaded OFs, 30 min): 97.59 ± 2.36^b %
